# In patent US20230210861A1 (priority 2020, published 2023):
# Several values for one entry are separate records, joined by “and”; a condition that tells them apart may be missing. Identical values can stand only once. Entries after “also recorded” stand apart in the source; their conditions may differ. Counter-ions that a name gives are not always drawn.
# Assays:
# [1] = target: T1, human alpha4beta2 nAChR (Homo sapiens, UniProt P17787+P43681); assay: Agonist activity at human alpha4beta2 nAChR expressed in Xenopus oocytes (two-electrode voltage clamp); assay type: cell-based; settings: for agonist character at nAChR alpha4beta2: in words; for effect on the subsequent ACh-evoked current, alpha4beta2: after the agonist concentration series
# Text: (§1) Agonist Preparation: See Example 1.
# [2] = target: T2, human alpha3alpha5beta4 nAChR (Homo sapiens, UniProt P30926+P32297); assay: Agonist activity at human alpha3alpha5beta4 nAChR expressed in Xenopus oocytes (two-electrode voltage clamp); settings: for agonist character at nAChR alpha3alpha5beta4: in words; for EC50: EC50 at nAChR alpha3alpha5beta4, test concentrations 0.1-300 uM
# Method: (§2) All experiments were carried out at human nAChRs expressed in Xenopus oocytes using the method of cDNA expression. Xenopus oocytes were prepared and injected using standard procedures.
# Briefly, ovaries were harvested from Xenopus Laevis females that have been deeply anesthetized by cooling at 4° C. and Tricaine methanesulfonate (MS-222 at a concentration of 150 mg/L) in sodium bicarbonate (300 mg/L). Once anesthetized the animal was decapitated and pithed following the rules of animal rights from the Geneva canton. A small piece of ovary was isolated for immediate preparation while the remaining part was placed at 4° C. in a sterile Barth solution containing in mM NaCl 88, KCl 1, NaHCO3 2.4, HEPES 10, MgSO4·7H2O 0.82, Ca(NO3)2·4H2O 0.33, CaCl2·6H2O 0.41, at pH 7.4, and supplemented with 20 ug/ml of kanamycin, 100 unit/ml penicillin. All recordings were performed at 18° C. and cells superfused with OR2 medium containing in mM: NaCl 88, KCl 2.5, HEPES 5, CaCl2·2H2O 1.8, MgCl2·6H2O 1, pH 7.4.
# (§3) Currents evoked by ACh or other agonists were recorded using an automated process equipped with standard two-electrode voltage-clamp configuration (TEVC). Data were captured and analyzed using a HiQScreen proprietary data acquisition and analysis software running under Matlab (Mathworks Inc.).
# ACh was prepared as a concentrated stock solution (10^−1M) in water and then diluted in the recording medium to obtain the desired test concentration. Compounds were dissolved in OR2 as stock solution (1 mM) and the final dilution to the desired concentration was made on the day of the experiment. OR2 medium contains in mM: NaCl 88.5, KCl 2.5, HEPES 5, CaCl2·2H2 1.8, MgCl2·6H2 1, pH 7.4.
# The test concentration of acetylcholine chloride was 1280 uM.
# (§4) Injections of cDNAs encoding for the human alpha3beta4, alpha3alpha5beta4, alpha4beta2, and alpha7 were performed in at least 95 oocytes were performed using a proprietary automated injection and receptor expression examined at least two days later. Oocytes were poked with two electrodes and their membrane potential maintained, unless indicated, at −80 mV throughout the experiment.
# A protocol to determine agonistic activity in the oocytes expressing the nAChRs was developed. The cells were exposed to a series of increasing concentrations of a compound agonist for 10 seconds each at two minute intervals. The current evoked from exposure to the agonist at each concentration was recorded. For oocytes expressing alpha7 nAChRs, exposure to the agonist was reduced to 5 seconds. This process was repeated for each agonist tested against each type of nAChR expressing cell.
# Experimental Procedures: Injections of cDNAs encoding for the human alpha3beta4, alpha3alpha5beta4, alpha4beta2, alpha4alpha6beta2, and alpha7 were performed in at least 95 oocytes using a proprietary automated injection device. Cellular receptor expression was examined at least two days later. Oocytes were poked with two electrodes and their membrane potential maintained, unless indicated, at −80 mV throughout the experiment.
# A protocol to determine agonistic activity in the oocytes expressing the nAChRs was developed. Oocytes expressing a nAChR subtype were exposed to a brief test pulse of acetylcholine (1280 uM) while the holding current and response was evaluated. Cells displaying robust currents were washed for 90 seconds. The cells were then exposed to a series of increasing concentrations of a nAChR agonist for 10 seconds each at two minute intervals. The nAChR agonist test concentrations were 0.1, 0.3, 1, 3, 10, 30, 100, 300 (uM). The current evoked from exposure to the agonist at each concentration was recorded.
# [3] = Pharmacokinetics in human subjects after 28 days of intranasal administration of Compound 1 hemigalactarate salt (Example 5); assay type: in vivo
# Method: Blood plasma for the patients was collected on Day 29 predose (time 0) and after a series of time points (10 min, 20 min, 30 min, 1 hr, 2 hrs, 4 hrs, 5 hrs, 6 hrs, 7 hrs, 8 hrs, and 24 hrs) after a single administration of drug. The blood plasma was analyzed for Compound 1.
# The following pharmacokinetic parameters for Compound 1 were calculated: • Cmax: Maximum observed concentration, observed by inspection of individual study participant plasma concentration time plots. • Tmax: Time of maximum observed concentration, obtained directly from the observed concentration time data. • AUClast: The area under the plasma concentration time curve, from time 0 to the last measurable non-zero concentration, calculated by a combination of linear and logarithmic trapezoidal methods (Linear up/log down method). • AUC0-4 h: The area under the plasma concentration time curve, from time 0 to the 4 h time point, calculated by a combination of linear and logarithmic trapezoidal methods (Linear up/log down method). • AUCinf: The area from zero time (pre-dose) extrapolated to infinite time (AUCinf) will be calculated as follows: AUCinf=AUClast+Cz/λz • AUC % Extrap: The percentage of AUCinf obtained by extrapolation (AUC % Extrap) will be calculated as follows: […]
# [4] = target: human alpha4alpha6beta2 nAChR (Homo sapiens, UniProt P17787+P43681+Q15825); assay: Agonist activity at human alpha4alpha6beta2 nAChR expressed in Xenopus oocytes (two-electrode voltage clamp); assay type: cell-based; settings: for agonist character at nAChR alpha4alpha6beta2: in words
# Text: as §1
# [5] = target: T3, human alpha3beta4 nAChR (Homo sapiens, UniProt P30926+P32297); assay: Agonist activity at human alpha3beta4 nAChR expressed in Xenopus oocytes (two-electrode voltage clamp); assay type: cell-based; settings: for agonist character at nAChR alpha3beta4: in words
# Text: as §1
# [6] = target: nAChR subtype alpha3beta2 (Homo sapiens, UniProt P17787+P32297); settings: in words; no experiment described; cited from earlier work
# [7] = target: T4, human alpha7 nAChR (Homo sapiens, UniProt P36544); assay: Agonist activity at human alpha7 nAChR expressed in Xenopus oocytes (two-electrode voltage clamp); assay type: cell-based; settings: for agonist character at nAChR alpha7: in words
# Text: as §1
# [8] = target: T1, human alpha4beta2 nAChR; assay: Desensitization / antagonistic activity, cumulative exposure in the low concentration range, alpha4beta2 in Xenopus oocytes; assay type: cell-based; settings: concentrations up to 300 nM; in words; dihydrate
# [9] = target: T2, human alpha3alpha5beta4 nAChR; assay: Desensitization / antagonistic activity, cumulative exposure in the low concentration range, alpha3alpha5beta4 in Xenopus oocytes; assay type: cell-based; settings: concentrations up to 300 nM; in words; dihydrate
# [10] = target: T4, human alpha7 nAChR; assay: Desensitization / antagonistic activity, cumulative exposure in the low concentration range, alpha7 in Xenopus oocytes; assay type: cell-based; settings: concentrations up to 300 nM; in words; dihydrate
# Method: as §2, §3, §4
# [11] = target: T3, human alpha3beta4 nAChR; assay: Desensitization / antagonistic activity, cumulative exposure in the low concentration range, alpha3beta4 in Xenopus oocytes; assay type: cell-based; settings: concentrations up to 300 nM, in words
# [12] = test system: Caco-2 cells; assay: Caco-2 cell viability, CellTiter-Glo assay; assay type: cell-based, human
# Method: In parallel, cell viability in the presence of varenicline tartrate and/or copper chloride was determined using CellTiter-Glo assay (Promega), which measures intracellular adenosine triphosphate levels.
# Cells treated with DMSO (solvent control) served as controls. Following incubation, […] of CellTiter-Glo substrate was added to each well and the samples were incubated for 10 min on a rocking platform. Following this 10 min incubation, luminescence was recorded using a POLAR star OPTIMA plate reader (BMG Labtech). Samples were run in triplicate and data is normalized with mean luminescence of DMSO only treated cells as 100% viability.
# All statistical analyses were performed using GraphPad Prism (version 9, GraphPad Software, Inc.).
# [13] = test system: SARS-CoV-2; assay: Infection of Caco-2 cells after exposure to SARS-CoV-2 (plaque titration of supernatant); settings: for percentage of Caco-2 cells infected with SARS-CoV-2, concentration dependence: 24 hours after exposure, MOI of 3, versus vehicle control, in words
# [14] = target: nAChR subtype alpha6beta2 (Homo sapiens, UniProt P17787+Q15825); settings: in words; no experiment described; cited from earlier work
# [15] = target: T3, human alpha3beta4 nAChR; assay: Sustained exposure to 300 uM varenicline tartrate and its recovery, alpha3beta4; assay type: cell-based; settings: 300 uM applied during three minutes; in words
# [16] = listed as Compound 1 citrate, mono-citrate
# [17] = listed as Compound 1 hemi-galactarate dihydrate, dihydrate
# [18] = test concentrations 0.1-300 uM, ACh 1280 uM reference
# T3 sequence (P32297 32-505): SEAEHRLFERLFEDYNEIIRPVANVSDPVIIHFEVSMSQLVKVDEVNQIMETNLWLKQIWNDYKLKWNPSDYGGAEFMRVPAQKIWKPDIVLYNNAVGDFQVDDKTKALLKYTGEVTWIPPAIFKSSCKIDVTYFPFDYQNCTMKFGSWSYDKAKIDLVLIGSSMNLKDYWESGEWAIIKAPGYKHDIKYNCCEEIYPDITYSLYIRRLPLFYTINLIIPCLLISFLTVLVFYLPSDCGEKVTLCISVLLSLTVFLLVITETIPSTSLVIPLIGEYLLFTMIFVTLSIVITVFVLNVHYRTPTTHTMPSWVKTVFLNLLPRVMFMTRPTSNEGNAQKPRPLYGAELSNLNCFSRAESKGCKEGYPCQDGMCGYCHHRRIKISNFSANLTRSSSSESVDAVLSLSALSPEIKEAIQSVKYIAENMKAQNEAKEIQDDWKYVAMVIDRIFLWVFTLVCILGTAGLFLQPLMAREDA
# T3 sequence (P30926 22-498): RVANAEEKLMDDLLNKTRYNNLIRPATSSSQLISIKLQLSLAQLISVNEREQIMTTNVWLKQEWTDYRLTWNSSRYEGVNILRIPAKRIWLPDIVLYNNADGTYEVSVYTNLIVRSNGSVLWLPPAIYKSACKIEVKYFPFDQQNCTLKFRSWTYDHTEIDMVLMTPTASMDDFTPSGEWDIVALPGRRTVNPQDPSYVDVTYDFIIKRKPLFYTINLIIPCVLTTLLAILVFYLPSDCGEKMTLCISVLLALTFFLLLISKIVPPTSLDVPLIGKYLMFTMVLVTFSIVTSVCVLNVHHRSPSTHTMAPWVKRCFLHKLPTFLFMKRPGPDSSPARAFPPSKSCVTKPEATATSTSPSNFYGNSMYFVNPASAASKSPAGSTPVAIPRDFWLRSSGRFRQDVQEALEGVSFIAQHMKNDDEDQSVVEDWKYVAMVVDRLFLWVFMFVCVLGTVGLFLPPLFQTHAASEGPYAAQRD
# T2 sequence (P32297 32-505): as the sequence (P32297 32-505) above
# T2 sequence (P30532 23-468 partner): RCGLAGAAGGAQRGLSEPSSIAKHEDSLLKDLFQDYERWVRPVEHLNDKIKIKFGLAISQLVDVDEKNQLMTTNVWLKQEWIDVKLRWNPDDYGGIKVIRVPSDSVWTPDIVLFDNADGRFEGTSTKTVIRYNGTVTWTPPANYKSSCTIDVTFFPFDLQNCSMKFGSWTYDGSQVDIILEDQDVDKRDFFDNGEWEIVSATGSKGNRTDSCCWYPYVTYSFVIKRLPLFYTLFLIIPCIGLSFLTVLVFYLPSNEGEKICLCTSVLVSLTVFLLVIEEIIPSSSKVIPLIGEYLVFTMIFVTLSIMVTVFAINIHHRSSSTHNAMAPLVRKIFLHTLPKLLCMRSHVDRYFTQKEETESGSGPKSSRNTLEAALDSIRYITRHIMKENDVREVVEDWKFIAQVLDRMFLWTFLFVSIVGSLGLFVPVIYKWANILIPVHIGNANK
# T2 sequence (P30926 22-498): as the sequence (P30926 22-498) above
# T1 sequence (P43681 29-627 limits assumed): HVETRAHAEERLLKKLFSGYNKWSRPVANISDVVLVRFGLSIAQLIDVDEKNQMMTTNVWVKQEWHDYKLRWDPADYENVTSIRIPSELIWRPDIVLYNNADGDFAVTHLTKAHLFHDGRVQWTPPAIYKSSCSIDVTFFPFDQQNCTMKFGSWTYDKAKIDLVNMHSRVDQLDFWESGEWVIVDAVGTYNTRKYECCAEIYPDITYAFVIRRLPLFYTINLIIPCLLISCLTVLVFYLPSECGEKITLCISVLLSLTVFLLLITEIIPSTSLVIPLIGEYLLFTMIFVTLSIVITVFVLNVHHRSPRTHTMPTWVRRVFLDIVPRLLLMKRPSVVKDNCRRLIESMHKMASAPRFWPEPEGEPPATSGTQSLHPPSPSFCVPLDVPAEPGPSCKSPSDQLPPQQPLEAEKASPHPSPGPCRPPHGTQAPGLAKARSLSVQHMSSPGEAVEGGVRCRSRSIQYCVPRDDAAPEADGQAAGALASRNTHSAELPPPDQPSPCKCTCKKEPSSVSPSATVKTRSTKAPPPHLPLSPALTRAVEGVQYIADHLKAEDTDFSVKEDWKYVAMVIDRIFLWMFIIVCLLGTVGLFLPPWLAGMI
# T1 sequence (P17787 26-502): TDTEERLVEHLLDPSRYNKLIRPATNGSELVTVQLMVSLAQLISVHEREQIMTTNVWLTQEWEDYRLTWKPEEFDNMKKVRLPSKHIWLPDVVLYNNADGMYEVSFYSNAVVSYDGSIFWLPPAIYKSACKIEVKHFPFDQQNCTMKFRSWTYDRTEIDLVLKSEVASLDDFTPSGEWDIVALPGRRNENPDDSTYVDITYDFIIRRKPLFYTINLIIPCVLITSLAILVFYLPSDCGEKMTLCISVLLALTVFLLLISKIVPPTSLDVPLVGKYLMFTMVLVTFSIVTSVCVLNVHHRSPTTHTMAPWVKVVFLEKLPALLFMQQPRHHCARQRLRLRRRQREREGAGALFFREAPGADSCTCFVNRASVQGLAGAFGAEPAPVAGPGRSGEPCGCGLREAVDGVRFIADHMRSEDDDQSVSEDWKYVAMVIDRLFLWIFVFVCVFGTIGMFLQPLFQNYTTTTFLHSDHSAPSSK
# Sequence of human alpha4alpha6beta2 nAChR (P43681 29-627 limits assumed): as the sequence (P43681 29-627 limits assumed) above
# Sequence of human alpha4alpha6beta2 nAChR (Q15825 26-494): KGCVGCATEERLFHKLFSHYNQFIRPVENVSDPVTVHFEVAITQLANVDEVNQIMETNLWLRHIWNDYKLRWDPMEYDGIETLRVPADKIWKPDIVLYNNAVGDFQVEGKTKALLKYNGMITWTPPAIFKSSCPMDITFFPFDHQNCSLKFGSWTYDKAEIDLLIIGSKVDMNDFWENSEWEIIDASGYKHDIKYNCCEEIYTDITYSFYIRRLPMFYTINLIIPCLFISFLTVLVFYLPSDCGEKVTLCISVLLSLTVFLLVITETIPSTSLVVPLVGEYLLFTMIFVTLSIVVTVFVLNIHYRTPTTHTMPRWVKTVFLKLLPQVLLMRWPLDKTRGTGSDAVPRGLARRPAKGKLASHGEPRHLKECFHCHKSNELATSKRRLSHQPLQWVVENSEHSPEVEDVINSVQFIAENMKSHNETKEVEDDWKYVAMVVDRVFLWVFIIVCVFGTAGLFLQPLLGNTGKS
# Sequence of human alpha4alpha6beta2 nAChR (P17787 26-502): as the sequence (P17787 26-502) above
# T4 sequence (P36544 23-502): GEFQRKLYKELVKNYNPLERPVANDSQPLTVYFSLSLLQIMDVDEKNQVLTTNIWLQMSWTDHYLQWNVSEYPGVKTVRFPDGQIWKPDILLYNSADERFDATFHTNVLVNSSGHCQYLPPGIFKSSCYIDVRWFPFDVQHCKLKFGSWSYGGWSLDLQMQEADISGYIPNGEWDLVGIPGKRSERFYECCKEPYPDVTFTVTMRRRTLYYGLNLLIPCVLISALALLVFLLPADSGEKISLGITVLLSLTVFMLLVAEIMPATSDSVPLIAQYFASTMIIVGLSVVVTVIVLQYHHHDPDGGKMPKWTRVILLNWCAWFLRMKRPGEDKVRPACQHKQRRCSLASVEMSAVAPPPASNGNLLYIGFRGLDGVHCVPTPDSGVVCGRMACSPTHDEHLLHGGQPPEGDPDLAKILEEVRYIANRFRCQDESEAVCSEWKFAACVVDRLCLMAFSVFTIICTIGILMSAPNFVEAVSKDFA
# Sequence of nAChR subtype alpha3beta2 (P32297 32-505): as the sequence (P32297 32-505) above
# Sequence of nAChR subtype alpha3beta2 (P17787 26-502): as the sequence (P17787 26-502) above
# Sequence of nAChR subtype alpha6beta2 (Q15825 26-494): as the sequence (Q15825 26-494) above
# Sequence of nAChR subtype alpha6beta2 (P17787 26-502): as the sequence (P17787 26-502) above
compound,measurement,setting,value
"C(=C\[C@H]1CCNC1)/c1cncnc1 [Compound 1, (R)-5-((E)-2-pyrrolidin-3-ylvinyl)pyrimidine]",agonist character at nAChR alpha4beta2,[1],full agonist
same,agonist character at nAChR alpha3alpha5beta4,[2],full agonist
same,"AUC % Extrap, Max","[3]; Day 29, N=7",41.1%
same,"AUC % Extrap, Mean","[3]; Day 29, N=7",21.3%
same,"AUC % Extrap, Median","[3]; Day 29, N=7",23.3%
same,"AUC % Extrap, Min","[3]; Day 29, N=7",3.69% and 3.67%
same,detection in plasma ten minutes after administration,"[3]; Day 29, 7 subjects",detected in plasma from all subjects
same,fraction cleared from systemic circulation before the next administration,"[3]; if administered every 12 hours (4 half-lives), from maximum half-life 2.83 h",> 94%
same,agonist character at nAChR alpha4alpha6beta2,[4],full agonist
same,agonist character at nAChR alpha3beta4,[5],full agonist
same,agonist character at nAChR alpha3beta2,[6],partial agonist
same,agonist character at nAChR alpha7,[7],full agonist; also recorded: weak partial agonist
"C(=C\[C@H]1CCNC1)/c1cncnc1 [compound 1 citrate, (R)-5-((E)pyrrolidin-3-ylvinyl)pyrimidine mono-citrate]","effect on the subsequent ACh-evoked current, alpha4beta2",[1]; mono-citrate,Significant inhibition of the current evoked by the second Ach exposure
same,agonist character at nAChR alpha4beta2,[1]; [16],almost as a full agonist
same,EC50,[2]; ACh 1280 uM reference,83 ± 9.05 µM
same,agonist character at nAChR alpha3alpha5beta4,[2]; [16],almost as a full agonist
same,agonist character at nAChR alpha4alpha6beta2,[4]; [16],almost as a full agonist
same,agonist character at nAChR alpha3beta4,[5]; [16],almost as a full agonist
same,"current evoked at 300 uM, percent of the maximal ACh-evoked current, alpha7",[7]; [16],25%
same,"current evoked at 300 uM, percent of the maximal ACh-evoked current, alpha7",[7]; mono-citrate,25%
same,agonist character at nAChR alpha7,[7]; [16],poor agonist
same,agonist character at nAChR alpha7,[7]; mono-citrate,weak partial agonist
"C(=C\[C@H]1CCNC1)/c1cncnc1 [compound 1 hemi-galactarate dihydrate, (R)-5-((E)-2-pyrrolidin-3-ylvinyl)pyrimidine hemigalactarate dihydrate]","effect on the subsequent ACh-evoked current, alpha4beta2",[1]; dihydrate,enhanced the subsequent ACh-evoked currents
same,agonist character at nAChR alpha4beta2,[1]; [17],more potent agonist than ACh
same,"evoked currents larger than the maximal ACh responses, alpha4beta2",[1]; relative to maximal ACh response,about 2 fold
same,EC50,[2]; ACh 1280 uM reference,32.1 ± 2.16 µM
same,agonist character at nAChR alpha3alpha5beta4,[2]; [17],almost as a full agonist
same,"current evoked, percent of the maximal ACh-evoked currents, alpha3alpha5beta4",[2]; maximal response,about 94%
same,"inhibition of ACh-evoked current on sustained exposure, alpha4beta2",[8],marked inhibition; also recorded: inhibits in a concentration-dependent manner
same,agonist character at nAChR alpha3beta4,[5]; [17],almost as a full agonist
same,"current evoked, percent of the maximal ACh-evoked currents, alpha3beta4",[5]; maximal response,about 94%
same,"inhibition of ACh-evoked current on sustained exposure, alpha3alpha5beta4",[9],marked inhibition; also recorded: inhibits in a concentration-dependent manner
same,"inhibition of ACh-evoked current on sustained exposure, alpha7",[10],insensitive; also recorded: no significant inhibition
same,"inhibition of ACh-evoked current on sustained exposure, alpha3beta4",[11]; dihydrate,insensitive; also recorded: no significant inhibition
same,"current evoked at 300 uM, percent of the maximal ACh-evoked current, alpha7",[7]; dihydrate,24%
same,agonist character at nAChR alpha7,[7]; dihydrate,poor agonist
same,agonist character at nAChR alpha7,[7]; [17],more potent agonist than ACh
[Cl][Cu][Cl] [copper chloride],cellular viability at 72 hours post-drug exposure,[12]; copper chloride concentrations of less than 1 uM,no significant impact on cellular viability
same,cellular viability at 72 hours post-drug exposure,[12]; exposures greater than 1 uM copper chloride,Some cellular toxicity
same,"percentage of Caco-2 cells infected with SARS-CoV-2, concentration dependence",[13],dose-dependent decrease
c1cnc2cc3c(cc2n1)[C@@H]1CNC[C@H]3C1 [varenicline],agonist character at nAChR alpha4beta2,[1],partial agonist
same,agonist character at nAChR alpha3alpha5beta4,[2],partial agonist
same,"effect on the subsequent ACh-evoked current, alpha4alpha6beta2",[4]; after the agonist concentration series,significant inhibition of the subsequent ACh-evoked current
same,"response compared to the ACh response, alpha4alpha6beta2",[4]; concentrations from 0.1 uM to 300 uM,≤ 6%
same,agonist character at nAChR alpha4alpha6beta2,[4],weak partial agonist
same,agonist character at nAChR alpha3beta4,[5],partial agonist
same,agonist character at nAChR alpha6beta2,[14],partial agonist
same,agonist character at nAChR alpha7,[7],full agonist
varenicline tartrate [reference compound],cellular viability at 72 hours post-drug exposure,[12]; even at 100 uM varenicline tartrate,no significant impact on cellular viability
same,"effect on the subsequent ACh-evoked current, alpha4beta2",[1],major inhibition of the subsequent ACh-evoked current
same,agonist character at nAChR alpha4beta2,[1],partial agonist
same,agonist character at nAChR alpha4beta2,[1]; listed as Varenicline tartrate,very poor agonist
same,EC50 at nAChR alpha4beta2,[1]; [18],low micromolar range
same,agonist character at nAChR alpha3alpha5beta4,[2],partial agonist
same,EC50 at nAChR alpha3alpha5beta4,[2]; [18],low micromolar range
same,agonist character at nAChR alpha3beta4,[5],partial agonist
same,EC50 at nAChR alpha3beta4,[5]; [18],low micromolar range
same,"current evoked by sustained exposure, alpha3beta4",[15],larger current amplitude; also recorded: rather large response
same,"inhibition of ACh-evoked current on sustained exposure, alpha3beta4",[11],very modest effect; also recorded: no significant inhibition
same,infection rate of the cells without copper chloride,"[13]; 0.1 uM and 0.5 uM varenicline tartrate, 24 hours, MOI 3, normalized to untreated (FIG. 3)",~100%
same,"percentage of Caco-2 cells infected with SARS-CoV-2, concentration dependence",[13],dose-dependent decrease
